“And” between values parts separate entries of the source, which are not always exact repeats. Identical values can stand only once. Positions of bridges follow the written chain, without caps; N, C: chain ends. Residues, ends and D or L forms follow the SMILES beside them.
How the values were obtained:
[1] = system: anesthetized male SD rats; experiment: In-vivo activity assay: peptide infusion in anesthetized rats (MAP, HR, PP, urine flow); parameters: species or system rat
Experimental: Male Sprague-Dawley (SD) rats (220-280 g) were obtained from Invivos, Singapore. Animals were acclimatized in the Animal Holding unit, NUS for 3 days before the experiment. The experiments were conducted under the guidance and approval of Institutional Animal Care and Use Committee, NUS (041/12).
The experiments were performed as described in Sridharan et al., [Biochem J 469 (2): 255-66 (2015)]. In brief, animals were anesthetized with sodium pentobarbital (60-70 mg/kg) and catheters were inserted in femoral artery, vein and urinary bladder. The body temperature of the animals was maintained using a thermostatic heat pad at 37° C. Continuous infusions (2 ml/h) of 0.2% BSA saline (with or without peptide) was administered through the femoral vein while a pressure transducer attached to the femoral artery recorded on-line changes in mean arterial pressure (MAP), heart rate (HR) and pulse pressure (PP). Urine was collected and the volume was measured after every 10 min. Experiments encompassed control (2×10 min), experimental (1×10 min) and recovery (4×10 min) periods. All animals were euthanized at the end of the experiment in carbon-di-oxide chambers.

rat NPR-A [2] = target: T1, rat NPR-A (Rattus norvegicus, UniProt P18910); experiment: Time-chase study of cGMP accumulation (NPR-A activation kinetics) at EC50 concentration of peptide; type: cell-based; conditions: for Rate of generation of cGMP / time of peak / maximum accumulation of cGMP: EC50 concentration of peptide
T1 construct: expressed in transfected cells; host or cells: CHO-K1
T1 sequence (P18910 29-1057): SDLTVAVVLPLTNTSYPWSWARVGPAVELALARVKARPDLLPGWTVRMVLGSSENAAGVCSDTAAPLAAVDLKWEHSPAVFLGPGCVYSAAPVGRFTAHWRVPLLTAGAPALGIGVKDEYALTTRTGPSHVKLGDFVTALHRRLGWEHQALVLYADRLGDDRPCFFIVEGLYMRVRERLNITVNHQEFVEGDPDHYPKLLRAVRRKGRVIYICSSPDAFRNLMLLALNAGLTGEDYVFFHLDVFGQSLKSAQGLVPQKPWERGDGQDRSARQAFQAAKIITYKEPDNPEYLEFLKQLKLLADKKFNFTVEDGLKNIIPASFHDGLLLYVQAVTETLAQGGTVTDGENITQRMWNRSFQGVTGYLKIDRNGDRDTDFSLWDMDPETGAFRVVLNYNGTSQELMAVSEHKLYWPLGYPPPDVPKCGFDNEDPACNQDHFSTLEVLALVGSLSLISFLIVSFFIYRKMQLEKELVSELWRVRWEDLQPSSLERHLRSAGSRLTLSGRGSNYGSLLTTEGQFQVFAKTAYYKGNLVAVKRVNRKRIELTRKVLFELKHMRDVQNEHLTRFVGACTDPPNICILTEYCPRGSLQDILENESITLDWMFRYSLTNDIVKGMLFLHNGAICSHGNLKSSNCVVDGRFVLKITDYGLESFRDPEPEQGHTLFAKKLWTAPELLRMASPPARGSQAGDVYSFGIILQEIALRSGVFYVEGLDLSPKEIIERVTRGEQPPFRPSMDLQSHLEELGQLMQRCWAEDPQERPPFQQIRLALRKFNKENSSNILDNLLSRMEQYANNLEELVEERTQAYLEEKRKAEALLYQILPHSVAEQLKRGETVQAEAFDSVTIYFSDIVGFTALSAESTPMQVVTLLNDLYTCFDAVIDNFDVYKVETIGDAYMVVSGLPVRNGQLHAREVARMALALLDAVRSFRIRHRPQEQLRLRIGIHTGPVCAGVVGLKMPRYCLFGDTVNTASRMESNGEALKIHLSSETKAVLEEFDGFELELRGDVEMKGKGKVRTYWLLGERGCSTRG
Experimental: (§1) The experiments were performed as described in Sridharan et al., [Biochem J 469 (2): 255-66 (2015)]. Dulbecco's modified Eagle's medium supplemented with 10% fetal bovine serum, 100 U/ml penicillin and 100 μg/ml streptomycin and 2 mM glutamine was used to grow CHO-K1 cells in a humidified incubator at 37° C. with 5% CO2. The cells were maintained by sub-culturing using 0.5% trypsin every three days. Cells (1×10^5) were seeded per well in 24-well plate and grown for 16 h. Cells in each well were transfected with 0.8 μg of plasmid encoding rat NPR-A using 2 μl of Lipofectamine™ 2000 transfection reagent. Cells were treated with the peptides 24 h after transfection.
Time-chase study was performed by treating the cells with EC50 concentration of the peptides. The reactions were terminated at the indicated time-points (0, 2, 5, 10, 20 and 30 min) by treating the cells with 0.1 N HCl. The cGMP concentration in the cell lysate was measured using cGMP ELISA kit (Enzo life sciences).

rat NPR-A [3] = target: T1, rat NPR-A; experiment: Whole cell cGMP assay, 30 min end-point dose-response in CHO-K1 cells transiently expressing NPR-A; type: cell-based; conditions: for fold drop in activity compared to ANP: cGMP response; for NPR-A activation potency, Ratio compared wild type NPs: negative = more potent than wild type
Experimental: as §1
NPR-A transfected CHO-K1 cells were treated with varying concentrations of peptides (10 nM to 10 μM dissolved in basal media containing 0.5 mM IBMX) for 30 min. The end-point accumulation of cGMP was measured after cell-lysis with 200 μl of 0.1 N HCl using Enzo life sciences cGMP ELISA kit (manufacturer's protocol).

[4] = 2.0 nmol/kg/min infusion, listed as DRDAND
[5] = equimolar infusion (2 nmol/kg/min)

CC[C@H](C)[C@@H]1NC(=O)[C@H](CCCNC(=N)N)NC(=O)[C@H](CC(=O)O)NC(=O)[C@H](CCSC)NC(=O)[C@H](CCCNC(=N)N)NC(=O)CNC(=O)[C@H](CC(=O)O)NC(=O)[C@H](Cc2ccccc2)NC(=O)[C@@H](NC(=O)[C@H](CO)NC(=O)[C@H](CO)NC(=O)[C@H](CCCNC(=N)N)NC(=O)[C@H](CCCNC(=N)N)NC(=O)[C@H](CC(C)C)NC(=O)[C@@H](N)CO)CSSC[C@@H](C(=O)N[C@@H](CC(N)=O)C(=O)N[C@@H](CO)C(=O)N[C@@H](Cc2ccccc2)C(=O)N[C@@H](CCCNC(=N)N)C(=O)N[C@@H](Cc2ccc(O)cc2)C(=O)O)NC(=O)CNC(=O)[C@H](CC(C)C)NC(=O)[C@H](CC(=O)O)NC(=O)[C@H](CO)NC(=O)[C@H](CCC(N)=O)NC(=O)[C@H](C)NC(=O)CNC1=O [^DGDANP] (H-SLRRSSCFDGRMDRIGAQSDLGCNSFRY-OH; disulfide 7-23; N-terminus assumed)
HR Rate of change per unit change in MAP ([1]; 2 nmol/kg/min infusion): 4.4
PP Rate of change per unit change in MAP ([1]; 2 nmol/kg/min infusion): 0.5
delay of the peak of diuresis ([1]; 2 nmol/kg/min infusion): 10 min
Mean arterial pressure Peak response ([1]; 2.0 nmol/kg/min infusion): −4.8±2.3 mmHg and −4.8 ± 2.9 mmHg
Urine flow rate Peak Time ([1]; 2.0 nmol/kg/min infusion): 30 min
Urine flow rate Peak response ([1]; 2.0 nmol/kg/min infusion): 7.9 ± 2.1 µL/min and 7.9 ± 2.0 µL/min
Rate of generation of cGMP, Ratio compared ANP (rat NPR-A [2]): 56.9
Rate of generation of cGMP, Ratio compared wild type NPs (rat NPR-A [2]): 56.9
times slower activation kinetics compared to the wild type (ANP) (rat NPR-A [2]): 7.8 times
Rate of generation of cGMP (rat NPR-A [2]): 0.14 pmol cGMP/pmol peptide
time of peak / maximum accumulation of cGMP (rat NPR-A [2]): 10 min
NPR-A activation potency, Ratio compared ANP (rat NPR-A [3]): 7.8
fold drop in activity compared to ANP (rat NPR-A [3]): 8 fold
NPR-A activation potency, Ratio compared wild type NPs (rat NPR-A [3]): 7.8

CC[C@H](C)[C@@H]1NC(=O)[C@H](CCCNC(=N)N)NC(=O)[C@H](CC(=O)O)NC(=O)[C@H](CCSC)NC(=O)[C@H](CCCNC(=N)N)NC(=O)[C@H](CCCNC(=N)N)NC(=O)[C@H](CC(=O)O)NC(=O)[C@H](Cc2ccccc2)NC(=O)[C@@H](NC(=O)[C@H](CO)NC(=O)[C@H](CO)NC(=O)[C@H](CCCNC(=N)N)NC(=O)[C@H](CCCNC(=N)N)NC(=O)[C@H](CC(C)C)NC(=O)[C@@H](N)CO)CSSC[C@@H](C(=O)N[C@@H](CC(N)=O)C(=O)N[C@@H](CO)C(=O)N[C@@H](Cc2ccccc2)C(=O)N[C@@H](CCCNC(=N)N)C(=O)N[C@@H](Cc2ccc(O)cc2)C(=O)O)NC(=O)CNC(=O)[C@H](CC(C)C)NC(=O)[C@H](CC(=O)O)NC(=O)[C@H](CO)NC(=O)[C@H](CCC(N)=O)NC(=O)[C@H](C)NC(=O)CNC1=O [^DRDANP] (H-SLRRSSCFDRRMDRIGAQSDLGCNSFRY-OH; disulfide 7-23; N-terminus assumed)
Heart rate Peak response ([1]; 0.2 nmol/kg/min infusion): −37.5±9.5 BPM
Heart rate Peak time ([1]; 0.2 nmol/kg/min infusion): 30 min
Mean arterial pressure Peak response ([1]; 0.2 nmol/kg/min infusion): −12.9±1.5 mmHg
Mean arterial pressure Peak time ([1]; 0.2 nmol/kg/min infusion): 30 min
Pulse pressure Peak time ([1]; 0.2 nmol/kg/min infusion): 20 min
Urine flow rate Peak response ([1]; 0.2 nmol/kg/min infusion): <2 µL/min
diuresis ([1]; 0.2 nmol/kg/min infusion): failed to induce diuresis
HR Rate of change per unit change in MAP ([1]; 2 nmol/kg/min infusion): 4.5
PP Rate of change per unit change in MAP ([1]; 2 nmol/kg/min infusion): 0.5
Heart rate Peak response ([1]; 2.0 nmol/kg/min infusion): −66.6±14.6 BPM
Heart rate Peak time ([1]; 2.0 nmol/kg/min infusion): 30 min
Mean arterial pressure Peak response ([1]; 2.0 nmol/kg/min infusion): −18.3±2.3 mmHg
Mean arterial pressure Peak time ([1]; 2.0 nmol/kg/min infusion): 30 min
Pulse pressure Peak response ([1]; 2.0 nmol/kg/min infusion): −7.9±1.8 mmHg
Pulse pressure Peak time ([1]; 2.0 nmol/kg/min infusion): 20 min
Urine flow rate Peak Time ([1]; 2.0 nmol/kg/min infusion): 20 min
Urine flow rate Peak response ([1]; 2.0 nmol/kg/min infusion): 18.7 ± 0.7 µL/min
Heart rate Peak response [1, 4]: −66.6 ± 14.5 BPM
Mean arterial pressure Peak response [1, 4]: −18.4 ± 2.4 mmHg
Pulse pressure Peak response [1, 4]: −8.0 ± 1.8 mmHg
Urine flow rate Peak response [1, 4]: 18.8 ± 0.7 µL/min
diuresis compared to K-Ring^NSFRY [1, 5]: 2 fold
influence on HR compared to K-Ring^NSFRY [1, 5]: 2 fold
Rate of generation of cGMP, Ratio compared ANP (rat NPR-A [2]): 21.0
Rate of generation of cGMP, Ratio compared wild type NPs (rat NPR-A [2]): 21.0
times slower activation kinetics compared to the wild type (ANP) (rat NPR-A [2]): 2.6 times
Rate of generation of cGMP (rat NPR-A [2]): 0.38 pmol cGMP/pmol peptide
time of peak / maximum accumulation of cGMP (rat NPR-A [2]): 10 min
NPR-A activation potency, Ratio compared ANP (rat NPR-A [3]): 2.6
fold drop in activity compared to ANP (rat NPR-A [3]): 3 fold
NPR-A activation potency, Ratio compared wild type NPs (rat NPR-A [3]): 2.6

CC[C@H](C)[C@@H]1NC(=O)[C@H](CCCNC(=N)N)NC(=O)[C@H](CC(=O)O)NC(=O)[C@H](CCSC)NC(=O)[C@H](CCCNC(=N)N)NC(=O)CNC(=O)CNC(=O)[C@H](Cc2ccccc2)NC(=O)[C@@H](NC(=O)[C@H](CO)NC(=O)[C@H](CO)NC(=O)[C@H](CCCNC(=N)N)NC(=O)[C@H](CCCNC(=N)N)NC(=O)[C@H](CC(C)C)NC(=O)[C@@H](N)CO)CSSC[C@@H](C(=O)N[C@@H](CC(N)=O)C(=O)N[C@@H](CO)C(=O)N[C@@H](Cc2ccccc2)C(=O)N[C@@H](CCCNC(=N)N)C(=O)N[C@@H](Cc2ccc(O)cc2)C(=O)O)NC(=O)CNC(=O)[C@H](CC(C)C)NC(=O)CNC(=O)[C@H](CO)NC(=O)[C@H](CCC(N)=O)NC(=O)[C@H](C)NC(=O)CNC1=O [ANP, reference compound]
Heart rate Peak response ([1]; 0.08 nmol/kg/min infusion): −7.8 ± 2.4 BPM
Pulse pressure Peak response ([1]; 0.08 nmol/kg/min infusion): −2.1 ± 1.5 mmHg
Urine flow rate Peak Time ([1]; 0.08 nmol/kg/min infusion): 20 min
Urine flow rate Peak response ([1]; 0.08 nmol/kg/min infusion): 5.4 ± 1.4 µL/min
Mean arterial pressure Peak response ([1]; 0.08 nmol/kg/min infusion, anesthetized rats): −1.6 ± 1.5 mmHg
HR Rate of change per unit change in MAP ([1]; 0.2 nmol/kg/min infusion): 5.6
Heart rate Peak time ([1]; 0.2 nmol/kg/min infusion): 30 min
Mean arterial pressure Peak response ([1]; 0.2 nmol/kg/min infusion): −10.1±0.8 mmHg and −10.1 ± 1.9 mmHg
Mean arterial pressure Peak time ([1]; 0.2 nmol/kg/min infusion): 30 min
PP Rate of change per unit change in MAP ([1]; 0.2 nmol/kg/min infusion): 0.5
Pulse pressure Peak response ([1]; 0.2 nmol/kg/min infusion): −7.7±3.9 mmHg and −7.7±1.8 mmHg
Pulse pressure Peak time ([1]; 0.2 nmol/kg/min infusion): 40 min
Urine flow rate Peak Time ([1]; 0.2 nmol/kg/min infusion): 20 min
Urine flow rate Peak response ([1]; 0.2 nmol/kg/min infusion): 8.8 ± 1.3 µL/min

From patent US11312758B2, “Peptides with vasodilatory and/or diuretic functions” (National University of Singapore, priority 2016, dated 2022)
